The results in this text go back to the NIST ThermoML archive (doi:10.1021/je8006309).

Numbers after ± are expanded uncertainties.

For data set [1] the following is noted: for Normal melting temperature: Crystal.
Data set [2] in a line: Molar enthalpy of transition or fusion. The following applies: Crystal; DSC.

As to `CCCC[n+]1ccc(C)cc1.Cc1ccc(S(=O)(=O)[O-])cc1` [N-butyl-4-methylpyridinium tosylate], in data set [1] (DTA), the Normal melting temperature was determined as 51.71 ± 0.39 °C. Besides, the Glass transition temperature in data set [1] (Glass, DTA) was -57.3 ± 3 °C. In addition, the “Molar enthalpy of transition or fusion” value in data set [2] worked out at 3.42 ± 0.0908 kcal/mol. Turning to `c1ccccc1` [benzene], the Normal melting temperature in data set [1] (DTA) turned out to be 5.14 ± 0.39 °C. Regarding `CCCCCCCCCCO` [decan-1-ol], the Normal melting temperature in data set [1] was found to be 7.36 ± 0.93 °C. For the compound `CCCCCCCCO` [octan-1-ol], in data set [1], the Normal melting temperature is -14.00 ± 0.93 °C. Same read-out and setting: under `O` [water] stands 0.00 ± 0.93 °C.
